In PubChem BioAssay AID2060624 (Molecular Pharmacology Branch, DTP, NCI, 2025):

Tested on: 217524-143-R1-J4-PDC spheroids with HUVEC/MSC, viability
Test: Anticancer human tumor 217524-143-R1-J4-PDC patient-derived pancreatic carcinoma cell line growth inhibition [CLK]
Details: for IC50: curve of first compound; for viability, T/C: stronger effect = lower value
How it was run: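 Multi-cell-type spheroids combined patient-derived tumor cells with HUVEC endothelial cells and human mesenchymal stem cells. Paired agents were dosed in half-log steps down from about clinical Cmax, or from 10 microM where Cmax was unknown.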

[1] = second compound 0.0316 µM, first compound 0.0316 µM
[2] = second compound 0.0316 µM, first compound 0.1 µM
[3] = second compound 0.0316 µM, first compound 0.316 µM
[4] = second compound 0.0316 µM, first compound 1 µM
[5] = second compound 0.0316 µM, first compound 3.16 µM
[6] = second compound 0.0316 µM, first compound 10 µM
[7] = second compound 0.1 µM, first compound 0.0316 µM
[8] = second compound 0.1 µM, first compound 0.1 µM
[9] = second compound 0.1 µM, first compound 0.316 µM
[10] = second compound 0.1 µM, first compound 1 µM
[11] = second compound 0.1 µM, first compound 3.16 µM
[12] = second compound 0.1 µM, first compound 10 µM
[13] = second compound 0.316 µM, first compound 0.0316 µM
[14] = second compound 0.316 µM, first compound 0.1 µM
[15] = second compound 0.316 µM, first compound 0.316 µM
[16] = second compound 0.316 µM, first compound 1 µM
[17] = second compound 0.316 µM, first compound 3.16 µM
[18] = second compound 0.316 µM, first compound 10 µM
[19] = second compound 1 µM, first compound 0.0316 µM
[20] = second compound 1 µM, first compound 0.1 µM
[21] = second compound 1 µM, first compound 0.316 µM
[22] = second compound 1 µM, first compound 1 µM
[23] = second compound 1 µM, first compound 3.16 µM
[24] = second compound 1 µM, first compound 10 µM
[25] = second compound 3.16 µM, first compound 0.0316 µM
[26] = second compound 3.16 µM, first compound 0.1 µM
[27] = second compound 3.16 µM, first compound 0.316 µM
[28] = second compound 3.16 µM, first compound 1 µM
[29] = second compound 3.16 µM, first compound 3.16 µM
[30] = second compound 3.16 µM, first compound 10 µM
[31] = second compound 10 µM, first compound 0.0316 µM
[32] = second compound 10 µM, first compound 0.1 µM
[33] = second compound 10 µM, first compound 0.316 µM
[34] = second compound 10 µM, first compound 1 µM
[35] = second compound 10 µM, first compound 3.16 µM
[36] = second compound 10 µM, first compound 10 µM
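Also: spheroids exposed to agents for seven days before reading.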
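For viability, T/C in this document: 100% = DMSO vehicle control viability.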

## C#Cc1c(F)ccc2cc(O)cc(-c3ncc4c(N5CC6CCC(C5)N6)nc(OCC56CCCN5CC(F)C6)nc4c3F)c12 (stereo not drawn) + CN1CCN(c2cc(C(=O)Nc3cc4cc(-c5cnn(C)c5)ccc4cn3)ccn2)CC1
Second compound 0.0316 µM
  IC50: > 10000 nM
Second compound 0.1 µM
  IC50: 3210 nM
Second compound 0.316 µM
  IC50: < 31.6 nM
Second compound 1 µM
  IC50: < 31.6 nM
Second compound 3.16 µM
  IC50: < 31.6 nM
Second compound 10 µM
  IC50: < 31.6 nM
[1]
  viability, T/C: 76.1%
[2]
  viability, T/C: 74.4%
[3]
  viability, T/C: 65.5%
[4]
  viability, T/C: 85.1%
[5]
  viability, T/C: 81.1%
[6]
  viability, T/C: 55%
[7]
  viability, T/C: 53.6%
[8]
  viability, T/C: 46.2%
[9]
  viability, T/C: 53.2%
[10]
  viability, T/C: 55.5%
[11]
  viability, T/C: 49.3%
[12]
  viability, T/C: 37%
[13]
  viability, T/C: 28.3%
[14]
  viability, T/C: 23.9%
[15]
  viability, T/C: 25.2%
[16]
  viability, T/C: 21.6%
[17]
  viability, T/C: 24.8%
[18]
  viability, T/C: 18%
[19]
  viability, T/C: 2.18%
[20]
  viability, T/C: 2.28%
[21]
  viability, T/C: 3.15%
[22]
  viability, T/C: 2.36%
[23]
  viability, T/C: 1.66%
[24]
  viability, T/C: 2.26%
[25]
  viability, T/C: 0.79%
[26]
  viability, T/C: 0.88%
[27]
  viability, T/C: 0.86%
[28]
  viability, T/C: 0.96%
[29]
  viability, T/C: 0.86%
[30]
  viability, T/C: 0.79%
[31]
  viability, T/C: 0.25%
[32]
  viability, T/C: 0.25%
[33]
  viability, T/C: 0.2%
[34]
  viability, T/C: 0.23%
[35]
  viability, T/C: 0.23%
[36]
  viability, T/C: 0.43%

## CC(CO)NC(=O)c1cc(-c2ccc(Cl)cc2)nn(-c2cnn(C)c2)c1=O (stereo not drawn) + CN1CCN(c2cc(C(=O)Nc3cc4cc(-c5cnn(C)c5)ccc4cn3)ccn2)CC1
Second compound 0.0316 µM
  IC50: > 10000 nM
Second compound 0.1 µM
  IC50: 229 nM
Second compound 0.316 µM
  IC50: < 31.6 nM
Second compound 1 µM
  IC50: < 31.6 nM
Second compound 3.16 µM
  IC50: < 31.6 nM
Second compound 10 µM
  IC50: < 31.6 nM
[1]
  viability, T/C: 81%
[2]
  viability, T/C: 83.5%
[3]
  viability, T/C: 68.8%
[4]
  viability, T/C: 71.7%
[5]
  viability, T/C: 92%
[6]
  viability, T/C: 54.1%
[7]
  viability, T/C: 73.4%
[8]
  viability, T/C: 53.2%
[9]
  viability, T/C: 47.8%
[10]
  viability, T/C: 51%
[11]
  viability, T/C: 53.9%
[12]
  viability, T/C: 39.6%
[13]
  viability, T/C: 14.4%
[14]
  viability, T/C: 19.4%
[15]
  viability, T/C: 18.1%
[16]
  viability, T/C: 18.6%
[17]
  viability, T/C: 19.8%
[18]
  viability, T/C: 16.7%
[19]
  viability, T/C: 1.96%
[20]
  viability, T/C: 2.25%
[21]
  viability, T/C: 2.62%
[22]
  viability, T/C: 1.95%
[23]
  viability, T/C: 1.85%
[24]
  viability, T/C: 1.4%
[25]
  viability, T/C: 1.05%
[26]
  viability, T/C: 1.27%
[27]
  viability, T/C: 0.89%
[28]
  viability, T/C: 0.99%
[29]
  viability, T/C: 0.97%
[30]
  viability, T/C: 0.84%
[31]
  viability, T/C: 0.26%
[32]
  viability, T/C: 0.3%
[33]
  viability, T/C: 0.26%
[34]
  viability, T/C: 0.29%
[35]
  viability, T/C: 0.33%
[36]
  viability, T/C: 0.27%

## CC(Nc1ccc2c(c1)OCCn1cc(N3C(=O)OCC3C(F)F)nc1-2)C(N)=O (stereo not drawn) + CN1CCN(c2cc(C(=O)Nc3cc4cc(-c5cnn(C)c5)ccc4cn3)ccn2)CC1
Second compound 0.0316 µM
  IC50: 61.8 nM
Second compound 0.1 µM
  IC50: < 31.6 nM
Second compound 0.316 µM
  IC50: < 31.6 nM
Second compound 1 µM
  IC50: < 31.6 nM
Second compound 3.16 µM
  IC50: < 31.6 nM
Second compound 10 µM
  IC50: < 31.6 nM
[1]
  viability, T/C: 75.1%
[2]
  viability, T/C: 30.5%
[3]
  viability, T/C: 16.9%
[4]
  viability, T/C: 6.57%
[5]
  viability, T/C: 5.62%
[6]
  viability, T/C: 3.9%
[7]
  viability, T/C: 40.8%
[8]
  viability, T/C: 24.6%
[9]
  viability, T/C: 10.2%
[10]
  viability, T/C: 5.26%
[11]
  viability, T/C: 4.73%
[12]
  viability, T/C: 3.98%
[13]
  viability, T/C: 19.2%
[14]
  viability, T/C: 9.36%
[15]
  viability, T/C: 6.98%
[16]
  viability, T/C: 4.68%
[17]
  viability, T/C: 3.77%
[18]
  viability, T/C: 3.27%
[19]
  viability, T/C: 2.47%
[20]
  viability, T/C: 1.63%
[21]
  viability, T/C: 1.31%
[22]
  viability, T/C: 1.2%
[23]
  viability, T/C: 1.03%
[24]
  viability, T/C: 0.93%
[25]
  viability, T/C: 0.62%
[26]
  viability, T/C: 0.64%
[27]
  viability, T/C: 0.73%
[28]
  viability, T/C: 0.58%
[29]
  viability, T/C: 0.75%
[30]
  viability, T/C: 0.64%
[31]
  viability, T/C: 0.11%
[32]
  viability, T/C: 0.18%
[33]
  viability, T/C: 0.18%
[34]
  viability, T/C: 0.13%
[35]
  viability, T/C: 0.27%
[36]
  viability, T/C: 0.2%

## COc1c(OCCCN2CCOCC2)ccc2c3n(c(=NC(=O)c4cnc(N)nc4)nc12)CCN3 + CN1CCN(c2cc(C(=O)Nc3cc4cc(-c5cnn(C)c5)ccc4cn3)ccn2)CC1
Second compound 0.0316 µM
  IC50: 6.3 nM
Second compound 0.1 µM
  IC50: < 3.16 nM
Second compound 0.316 µM
  IC50: < 3.16 nM
Second compound 1 µM
  IC50: < 3.16 nM
Second compound 3.16 µM
  IC50: < 3.16 nM
Second compound 10 µM
  IC50: < 3.16 nM
Second compound 0.0316 µM, first compound 0.00316 µM
  viability, T/C: 72.3%
Second compound 0.0316 µM, first compound 0.01 µM
  viability, T/C: 35.1%
[1]
  viability, T/C: 8.37%
[2]
  viability, T/C: 4.22%
[3]
  viability, T/C: 3.38%
[4]
  viability, T/C: 2.18%
Second compound 0.1 µM, first compound 0.00316 µM
  viability, T/C: 40.3%
Second compound 0.1 µM, first compound 0.01 µM
  viability, T/C: 24.1%
[7]
  viability, T/C: 7.97%
[8]
  viability, T/C: 4.61%
[9]
  viability, T/C: 2.58%
[10]
  viability, T/C: 2.72%
Second compound 0.316 µM, first compound 0.00316 µM
  viability, T/C: 18.8%
Second compound 0.316 µM, first compound 0.01 µM
  viability, T/C: 12.1%
[13]
  viability, T/C: 5.45%
[14]
  viability, T/C: 3.87%
[15]
  viability, T/C: 2.75%
[16]
  viability, T/C: 2.26%
Second compound 1 µM, first compound 0.00316 µM
  viability, T/C: 2.94%
Second compound 1 µM, first compound 0.01 µM
  viability, T/C: 1.77%
[19]
  viability, T/C: 1.27%
[20]
  viability, T/C: 1.02%
[21]
  viability, T/C: 0.59%
[22]
  viability, T/C: 0.49%
Second compound 3.16 µM, first compound 0.00316 µM
  viability, T/C: 0.65%
Second compound 3.16 µM, first compound 0.01 µM
  viability, T/C: 0.68%
[25]
  viability, T/C: 0.5%
[26]
  viability, T/C: 0.47%
[27]
  viability, T/C: 0.5%
[28]
  viability, T/C: 0.45%
Second compound 10 µM, first compound 0.00316 µM
  viability, T/C: 0.14%
Second compound 10 µM, first compound 0.01 µM
  viability, T/C: 0.14%
[31]
  viability, T/C: 0.19%
[32]
  viability, T/C: 0.13%
[33]
  viability, T/C: 0.25%
[34]
  viability, T/C: 0.19%
